Data published in publication PMC6278399, “Synthesis and Anticancer Activity Evaluation of Hydrolyzed Derivatives of Panaxnotoginseng Saponins” (Molecules, 2018).

What was measured:
[1] = test system: human colon cancer cells (HT-29); experiment: MTT cytotoxicity assay, HT-29; type: cell-based; details: Homo sapiens; HT-29, MTT, 48 h
Excerpt: (§1) In the study, five cancer cell lines (human colon cancer cells (HT-29), gastric cancer cells (BGC-823), cervical cancer cells (Hela), human breast cancer cells (MCF-7), and human lung cancer cells A549)), and two normal cell lines (human gastric epithelial cells (GES-1) and human ovarian epithelial cells (IOSE144)) were used for the evaluation of biological activity. IOSE144 cells were donated by Professor Piao Huri of Yanbian University, all other cells were purchased from the American Type Culture Collection (ATCC, Manassas, VA, USA). Cells were cultured in Dulbecco’s Modified Eagle’s Medium (DMEM), supplemented with 10% heat-inactivated fetal bovine serum (FBS), 1% 100 μg/mL penicillin and 100 μg/mL streptomycin in a humidified atmosphere containing 5% CO2 at 37 °C. Cell viability was measured using the MTT assay. Cells were seeded in 96 well microtiter plates in a volume of 100 μL medium. All compounds tested were dissolved and further diluted in DMSO. After overnight incubation, cells were treated with different test concentrations or carrier solvents alone in a final volume of 100 μL with five replicates each. […] Cells were treated with compound (80, 40, 20, 10, 5 μM) for 48 h. Then, 10 μL of MTT (5 mg/mL) was added to each well and the cells were incubated at 37 °C in the dark for 4 h. Supernatants were removed and formazan crystals were dissolved in DMSO (100 μL/well). The solution was agitated for 10 min, and the absorbance was measured at 490 nm using microplate reader (imark, BIO-RAD, Hercules, CA, USA) to calculate the 50% inhibitory concentration (IC50). Ginsenoside-Rg3, panaxadiol sapogenin (PD), AD-2 (25-OH-PPD) and AD-1 (25-OCH3-PPD) were used as standard reference compounds.

[2] = test system: human breast cancer cells (MCF-7); experiment: MTT cytotoxicity assay, MCF-7; type: cell-based; details: Homo sapiens, MCF7; MCF-7, MTT, 48 h
Excerpt: as §1

[3] = MTT cytotoxicity assay, IOSE144 normal cells; type: cell-based, human; details: human
Excerpt: as §1

[4] = MTT cytotoxicity assay, GES-1 normal cells; type: cell-based, human; details: human
Excerpt: as §1

[5] = test system: gastric cancer cells (BGC-823); experiment: MTT cytotoxicity assay, BGC-823; type: cell-based, human; details: Homo sapiens; BGC-823, MTT, 48 h
Excerpt: as §1

[6] = test system: cervical cancer cells (Hela); experiment: MTT cytotoxicity assay, Hela; type: cell-based, human; details: Homo sapiens, 48 h
Excerpt: as §1

[7] = test system: human lung cancer cells A549; experiment: MTT cytotoxicity assay, A549; type: cell-based; details: Homo sapiens, 48 h
Excerpt: as §1

[8] = IOSE144 ovarian epithelial cells (normal cell line), IOSE144 normal cells, MTT, 48 h, read-out: IC50
[9] = GES-1 gastric epithelial cells (normal cell line), GES-1 normal cells, MTT, 48 h, read-out: IC50

Compound	IC50 [1] [µM]	IC50 [2] [µM]	IC50 at 48 h [3] [µM]	IC50 at 48 h [4] [µM]	IC50 [5] [µM]	IC50 [6] [µM]	melting point [°C]	IC50 [7] [µM]	IC50 at 48 h [3, 8] [µM]	IC50 at 48 h [4, 9] [µM]
CC1(C)CCC[C@](C)(C2CC[C@]3(C)C2[C@H](O)CC2[C@@]4(C)CC[C@H](OC(=O)c5ccccc5O)C(C)(C)C4CC[C@]23C)O1 (stereo partly drawn) [Compound 11a, 20(R)-Pananxadiol-12β-hydroxy-3β-yl-2′-hydroxybenzoate]	26.5 ± 0.56	11.5 ± 1.47	> 100	> 100	41.9 ± 0.43	> 100	222 to 224	23.8 ± 1.36		
CC(=O)Oc1ccccc1C(=O)OC1CC2C3(C)CCC(O)C(C)(C)C3CCC2(C)C2(C)CCC(C3(C)CCCC(C)(C)O3)C12 [Compound 5b, 20(R)-Pananxadiol-3β-hydroxy-12β-yl-2′-acetylbenzoate]	20.1 ± 0.74	24.36 ± 0.15	> 100	> 100	26.24 ± 0.02	18.65 ± 0.13	226 to 228	14.1 ± 0.52		
CC(C)(CCCC(C)(O)C1CCC2(C)C1C(O)CC1C3(C)CCC(O)C(C)(C)C3CCC12C)OC(=O)c1ccccc1O [Compound 8a, 20(R)-Dammarane-3β,12β,20-triol-25-yl-2′-hydroxybenzoate]	> 100	50.7 ± 1.34	> 100	> 100	> 100	> 100	223 to 225	47.1 ± 0.59		
CC(=O)Oc1ccccc1C(=O)O [Acetyl-salicylic acid, reference compound]	70.26 ± 0.38	57.1 ± 1.7			87.67 ± 0.78	> 100		90.5 ± 2.13	> 100	> 100
CC(C)(O)CCCC(C)(O)C1CCC2(C)C1C(OC(=O)c1ccccc1O)CC1C3(C)CCC(O)C(C)(C)C3CCC12C [Compound 5a, 20(R)-Dammarane-3β,20,25-triol-12β-yl-2′-hydroxybenzoate]	18.4 ± 0.47	18.5 ± 0.23	> 100	> 100	60.5 ± 1.11	21.6 ± 1.08	258 to 260	22.5 ± 0.46		
CC1(C)CCC[C@](C)([C@H]2CC[C@]3(C)[C@@H]2[C@H](O)C[C@@H]2[C@@]4(C)CC[C@H](O)C(C)(C)[C@@H]4CC[C@]23C)O1 [PD, panaxadiol, reference compound]	73.4 ± 1.84	62 ± 1.63			80.13 ± 0.36	72.15 ± 0.52		43.1 ± 1.05	> 100	> 100
CC(=O)Oc1ccccc1C(=O)OC1CCC2(C)C(CCC3(C)C2CC(OC(C)=O)C2C(C(C)(O)CCCC(C)(C)O)CCC23C)C1(C)C [Compound 7b, 20(R)-Dammarane-20,25-diol-12β-o-acetyl-3β-yl-2′-acetylbenzoate]	28.6 ± 0.65	22.6 ± 1.02	> 100	> 100	18.4 ± 0.35	19.53 ± 0.19	268 to 270	28.4 ± 0.95		
CC1(C)CCC[C@](C)(C2CC[C@]3(C)C2[C@H](OC(=O)c2ccccc2O)CC2[C@@]4(C)CC[C@H](OC(=O)c5ccccc5O)C(C)(C)C4CC[C@]23C)O1 (stereo partly drawn) [Compound 10a, 20(R)-Pananxadiol-3β,12β-di-yl-2′-hydroxybenzoate]	30.25 ± 0.02	41.4 ± 0.48	> 100	> 100	> 100	> 100	232 to 234	29.5 ± 0.61		
CC(C)(O)CCCC(C)(O)C1CCC2(C)C1C(O)CC1C3(C)CCC(OC(=O)c4ccccc4O)C(C)(C)C3CCC12C [Compound 9a, 20(R)-Dammarane-12β,20,25-triol-3β-yl-2′-hydroxybenzoate]	11.5 ± 0.23	50.44 ± 0.11	> 100	> 100	26.52 ± 0.26	37.3 ± 0.39	295 to 297	35.9 ± 0.41		
COC(C)(C)CCCC(C)(O)C1CCC2(C)C1C(OC(=O)c1ccccc1O)CC1C3(C)CCC(OC(=O)c4ccccc4O)C(C)(C)C3CCC12C [Compound 2a, 20(R)-25-Methoxydammarane-20-hydroxy-3β,12β-di-yl-2′-hydroxybenzoate]	32.58 ± 0.23	25.7 ± 0.43	> 100	> 100	40.9 ± 0.45	16.5 ± 0.23	200 to 202	26.45 ± 0.14		
CC(C)(CCCC(C)(O)C1CCC2(C)C1C(O)CC1C3(C)CCC(OC(=O)c4ccccc4O)C(C)(C)C3CCC12C)OC(=O)c1ccccc1O [Compound 6a, 20(R)-Dammarane-12β, 20-diol-3β, 25-di-yl-2′-hydroxybenzoate]	> 100	> 100	> 100	> 100	> 100	20.4 ± 0.36	219 to 221	19.4 ± 0.59		
O=C(O)c1ccccc1O [Salicylic acid, reference compound]	83.2 ± 1.65	> 100			> 100	> 100		> 100	> 100	> 100
COC(C)(C)CCCC(C)(O)C1CCC2(C)C1C(O)CC1C3(C)CCC(OC(=O)c4ccccc4O)C(C)(C)C3CCC12C [Compound 4a, 20(R)-25-Methoxydammarane-12β,20-diol-3β-yl-2′-hydroxybenzoate]	50.6 ± 1.03	11.1 ± 0.35	> 100	> 100	13.2 ± 0.18	19.26 ± 0.14	246 to 248	35.6 ± 0.56		
CC1(C)CCC[C@](C)(C2CC[C@]3(C)C2[C@H](OC(=O)c2ccccc2O)CC2[C@@]4(C)CC[C@H](O)C(C)(C)C4CC[C@]23C)O1 (stereo partly drawn) [Compound 12a, 20(R)-Pananxadiol-3β-hydroxy-12β-yl-2′-hydroxybenzoate]	> 100	60.1 ± 2.45	> 100	> 100	> 100	> 100	248 to 250	50.2 ± 0.94		
CC(=O)OC1CCC2(C)C(CCC3(C)C2CC(OC(=O)c2ccccc2O)C2C(C4(C)CCCC(C)(C)O4)CCC23C)C1(C)C [Compound 4b, 20(R)-Pananxadiol-3β-o-acetyl-12β-yl-2′-hydroxybenzoate]	36.12 ± 0.28	39.4 ± 0.68	> 100	> 100	50.26 ± 0.39	48.75 ± 0.37	238 to 240	25.4 ± 0.77		
